Values joined by “and” are separate entries in the source; they are usually repeats but may differ in a detail not shown here. Identical values can stand only once. Like-named read-outs stand apart in the source and are kept apart here.
Assays:
[1] = target: T1, CYP1B1 (Homo sapiens, UniProt Q16678); assay: EROD assay in inducible CYP1B1 cell line; assay type: cell-based
T1 construct: expressed in transfected cells
T1 sequence (Q16678 1-543): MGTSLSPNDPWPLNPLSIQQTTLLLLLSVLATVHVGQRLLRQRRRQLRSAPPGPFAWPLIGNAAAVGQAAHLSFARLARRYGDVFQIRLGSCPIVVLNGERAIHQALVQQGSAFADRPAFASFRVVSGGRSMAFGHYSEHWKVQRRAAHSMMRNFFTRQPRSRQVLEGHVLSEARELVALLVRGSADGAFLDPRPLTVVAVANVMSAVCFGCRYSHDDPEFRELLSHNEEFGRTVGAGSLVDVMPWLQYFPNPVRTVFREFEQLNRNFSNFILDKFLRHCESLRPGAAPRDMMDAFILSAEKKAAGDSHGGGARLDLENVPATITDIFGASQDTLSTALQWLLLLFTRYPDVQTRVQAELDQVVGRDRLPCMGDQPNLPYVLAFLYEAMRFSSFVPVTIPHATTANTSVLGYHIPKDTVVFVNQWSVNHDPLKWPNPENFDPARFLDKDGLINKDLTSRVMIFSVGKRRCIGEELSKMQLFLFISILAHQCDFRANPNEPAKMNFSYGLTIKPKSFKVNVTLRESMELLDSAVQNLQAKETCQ
Protocol: (§1) The activity of the inhibitors was assessed in a novel cell based assay generated for the purpose of this project. Enzymatic turnover of CYP1B1 was measured using the ethoxy-resorufin-O-deethylase (EROD) assay with the fluorescent substrate, resorufin ethyl ether. Cell lines were generated where the gene for CYP1B1 alone or CYP1B1 and cytochrome P450 reductase (CPR) were both under the control of an inducible promoter. A cell line was generated for counter screening where the gene for CYP1A1 was used. CYP1A1 is the closest family member to CYP1B1.

[2] = target: T2, CYP1A1 (Homo sapiens, UniProt P04798); assay: EROD assay in CYP1A1 counter-screen cell line; assay type: cell-based
T2 construct: expressed in transfected cells
T2 sequence (P04798 1-512): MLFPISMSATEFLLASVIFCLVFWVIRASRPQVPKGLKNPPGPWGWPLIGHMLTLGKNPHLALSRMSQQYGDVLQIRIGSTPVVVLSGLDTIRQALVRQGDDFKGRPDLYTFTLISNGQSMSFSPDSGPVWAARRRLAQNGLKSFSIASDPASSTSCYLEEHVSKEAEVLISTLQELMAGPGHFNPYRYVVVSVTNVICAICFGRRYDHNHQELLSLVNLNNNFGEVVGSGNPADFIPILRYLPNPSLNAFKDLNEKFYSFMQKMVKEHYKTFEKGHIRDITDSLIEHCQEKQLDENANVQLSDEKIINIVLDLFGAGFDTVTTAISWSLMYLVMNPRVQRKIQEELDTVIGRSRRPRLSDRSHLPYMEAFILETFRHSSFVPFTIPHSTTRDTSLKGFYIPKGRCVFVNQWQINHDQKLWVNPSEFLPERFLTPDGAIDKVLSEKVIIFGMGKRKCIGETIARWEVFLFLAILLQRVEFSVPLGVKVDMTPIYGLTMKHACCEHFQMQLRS
Protocol: as §1

[3] = target: T3, pooled human liver microsomes (pHLMs) (Homo sapiens, UniProt P05177); assay: EROD counterscreen in pooled human liver microsomes; assay type: biochemical; details: human, microsomes
T3 sequence (P05177 2-516): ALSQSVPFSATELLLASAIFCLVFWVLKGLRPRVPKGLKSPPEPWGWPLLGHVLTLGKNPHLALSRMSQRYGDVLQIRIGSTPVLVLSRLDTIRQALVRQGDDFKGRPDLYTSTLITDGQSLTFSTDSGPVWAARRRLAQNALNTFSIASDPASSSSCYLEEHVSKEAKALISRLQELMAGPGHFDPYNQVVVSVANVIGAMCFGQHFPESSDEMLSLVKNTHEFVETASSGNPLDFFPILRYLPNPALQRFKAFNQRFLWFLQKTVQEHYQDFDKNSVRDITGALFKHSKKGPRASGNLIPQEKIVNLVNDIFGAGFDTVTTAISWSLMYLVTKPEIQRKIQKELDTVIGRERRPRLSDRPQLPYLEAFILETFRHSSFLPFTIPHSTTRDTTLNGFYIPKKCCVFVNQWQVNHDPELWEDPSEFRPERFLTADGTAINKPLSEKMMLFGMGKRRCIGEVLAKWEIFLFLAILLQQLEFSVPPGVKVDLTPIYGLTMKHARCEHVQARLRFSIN
Text: Human liver microsomes were used as a counterscreen to experimentally determine the magnitude of inhibitor selectivity.

[4] = Cytotoxicity, resazurin, 72 hours after compound addition; assay type: cell-based; details: human, HEK cells; Table 1; 72 hours, resazurin; read-out: Cytotoxicity IC50
Protocol: Cytotoxicity was assessed at 72 hours after compound addition using resazurin. The compounds that function as selective 1B1 inhibitors had no effect on cell health. This is an essential feature for any chemopreventative agent or molecules intended to block the detrimental action of an enzyme.

[5] = tested on: MCF7 tumor spheroids; assay type: cell-based; details: 547 0.5 μM with cisplatin 100 μM; CYP1B1 induced with benzo[a]pyrene
Text: 510 is a control compound that lacks a coordinating group. […] All other conditions are following CYP1B1 induction with benzo[a]pyrene. Spheroid shown in inset.

[6] = target: T1, CYP1B1; assay: Wash out experiment (FIG. 2B); assay type: cell-based
Text: (§2) FIG. 2A includes a dose response of 547 in EROD assay in CYP1B1 cell line (blue) vs. 1A1 cell line (black). […] 510 is a control compound that lacks a coordinating group. […] All other conditions are following CYP1B1 induction with benzo[a]pyrene. Spheroid shown in inset.

[7] = target: T1, CYP1B1; assay: CYP1B1 degradation on binding (FIG. 2C); assay type: cell-based; details: 0.1 μM
Text: as §2

N#CCOc1ccc(-c2nc(OCC#N)c3ccccc3n2)cc1 [GL547]
IC50 ([1]; Table 1, read-out: CYP1B1 IC50): 24 pM
IC50 ([1]; Table 3, read-out: IC50 1B1): < 250 pM
activity of CYP1A1 over 24 h ([2]; 1 μM, 24 h, FIG. 2D): no loss in activity
IC50 ([2]; Table 1, read-out: CYP1A1 IC50): 1.4 µM
IC50 ([2]; Table 3, read-out: IC50 1A1): 3.73 µM and 2.69 µM
IC50 ([3]; Table 1, read-out: hLM IC50): 4 µM
IC50 ([3]; Table 3, read-out: IC50 pHLM): 3 µM
IC50 at 72 h [4]: > 10 µM
increase in cell death [5]: 75%
time CYP activity is suppressed after wash out [6]: > 10 h
effect of binding on CYP1B1 protein [7]: causes degradation of CYP1B1

From patent US20210246109A1, “POTENT AND SELECTIVE INHIBITORS OF CYTOCHROME P450” (University of Kentucky Research Foundation, priority 2020, published 2021)
